Reference: BindingDB's records for PubMed 9686407 (Sri International, 1998)

What was measured:
[1] = biological target: T1, 5-hydroxytryptamine receptor 2C (Rattus norvegicus, UniProt P08909)
T1 sequence (P08909 whole entry): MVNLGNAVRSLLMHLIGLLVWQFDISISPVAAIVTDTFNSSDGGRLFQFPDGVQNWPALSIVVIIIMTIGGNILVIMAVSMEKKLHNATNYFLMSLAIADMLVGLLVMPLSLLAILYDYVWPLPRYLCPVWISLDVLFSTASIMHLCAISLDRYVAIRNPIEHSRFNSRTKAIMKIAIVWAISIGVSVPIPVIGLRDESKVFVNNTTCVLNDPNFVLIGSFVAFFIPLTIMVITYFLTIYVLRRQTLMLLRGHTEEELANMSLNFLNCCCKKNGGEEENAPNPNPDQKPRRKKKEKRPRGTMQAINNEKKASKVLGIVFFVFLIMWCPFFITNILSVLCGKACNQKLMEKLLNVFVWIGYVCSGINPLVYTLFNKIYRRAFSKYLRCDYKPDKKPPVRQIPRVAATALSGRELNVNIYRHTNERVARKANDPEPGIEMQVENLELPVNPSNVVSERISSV

[2] = biological target: 5-hydroxytryptamine receptor 5A (Rattus norvegicus, UniProt P35364)
5-hydroxytryptamine receptor 5A, sequence (P35364 whole entry): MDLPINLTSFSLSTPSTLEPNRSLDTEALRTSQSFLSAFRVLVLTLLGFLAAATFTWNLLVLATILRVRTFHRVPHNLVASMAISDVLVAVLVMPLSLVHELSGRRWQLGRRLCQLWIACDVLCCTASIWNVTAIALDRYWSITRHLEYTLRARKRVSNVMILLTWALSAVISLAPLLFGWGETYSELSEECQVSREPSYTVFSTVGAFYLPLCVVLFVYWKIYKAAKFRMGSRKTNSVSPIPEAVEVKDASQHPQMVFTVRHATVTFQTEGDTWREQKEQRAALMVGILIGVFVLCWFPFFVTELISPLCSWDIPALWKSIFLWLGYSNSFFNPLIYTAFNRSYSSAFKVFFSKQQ

NCC(O)c1ccc(O)c(O)c1 (stereo not drawn) [Noradrenaline,(+)]
Ki [1]: > 10 µM | Ki [2]: > 10 µM
